From patent US9181241B2, “Antagonists of chemokine receptors” (ChemoCentryx, Inc., priority 2012, dated 2015)

target: T1, CCR1 (Homo sapiens, UniProt P32246); assay: Chemotaxis assay (CTX): inhibition of CCR1 mediated migration of THP-1 or monocyte cells; type: cell-based; settings: class symbols; activity for either the chemotaxis assay or binding assay
T1 construct: host or cells: THP-1 cells or isolated human CD14+ monocytes
T1 sequence (P32246 1-355): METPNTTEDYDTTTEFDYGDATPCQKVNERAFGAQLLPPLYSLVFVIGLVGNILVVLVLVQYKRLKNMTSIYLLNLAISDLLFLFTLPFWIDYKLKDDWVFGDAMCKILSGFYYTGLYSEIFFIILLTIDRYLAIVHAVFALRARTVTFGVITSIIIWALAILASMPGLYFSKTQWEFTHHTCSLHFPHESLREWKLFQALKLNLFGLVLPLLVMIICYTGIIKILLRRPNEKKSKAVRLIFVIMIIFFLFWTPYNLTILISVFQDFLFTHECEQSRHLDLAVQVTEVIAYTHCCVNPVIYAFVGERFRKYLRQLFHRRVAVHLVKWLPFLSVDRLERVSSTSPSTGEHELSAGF
Description: THP-1 cells were obtained from ATCC (TIB-202) and cultured as a suspension in RPMI-1640 medium supplemented with 2 mM L-glutamine, 1.5 g/L sodium bicarbonate, 4.5 g/L glucose, 10 mM HEPES, 1 mM sodium pyruvate, 0.05% 2-mercaptoethanol and 10% FBS. Cells were grown under 5% CO2/95% air, 100% humidity at 37° C. and subcultured twice weekly at 1:5 (cells were cultured at a density range of 2×10^5 to 2×10^6 cells/mL) and harvested at 1×10^6 cells/mL. THP-1 cells express CCR1 and can be used in CCR1 binding and functional assays.
Monocytes were isolated from human buffy coats using the Miltenyi bead isolation system (Miltenyi, Auburn, Calif.). Briefly, following a Ficoll gradient separation to isolate peripheral blood mononuclear cells, cells were washed with PBS and the red blood cells lysed using standard procedures. Remaining cells were labeled with anti-CD14 antibodies coupled to magnetic beads (Miltenyi Biotech, Auburn, Calif.). Labeled cells were passed through AutoMACS (Miltenyi, Auburn, Calif.) and positive fraction collected. Monocytes express CCR1 and can be used in CCR1 binding and functional assays.
Chemotaxis assays were performed using 5 μm pore polycarbonate, polyvinylpyrrolidone-coated filters in 96-well chemotaxis chambers (Neuroprobe; Gaithersburg, Md.) using chemotaxis buffer (Hank's balanced salt solution (HBSS) and 1% FBS). CCR1 chemokine ligands (i.e., MIP-1α, CCL15/Leukotactin; R&D Systems; Minneapolis, Minn.) are use to evaluate compound mediated inhibition of CCR1 mediated migration. Other chemokines (i.e., SDF-1α; R&D Systems; Minneapolis, Minn.) are used as specificity controls. The lower chamber was loaded with 29 μl of chemokine (i.e., 0.1 nM CCL15/Leukotactin) and varying amounts of compound; the top chamber contained 100,000 THP-1 or monocyte cells in 20 μl. The chambers were incubated 1-2 hours at 37° C., and the number of cells in the lower chamber quantified either by direct cell counts in five high powered fields per well or by the CyQuant assay (Molecular Probes), a fluorescent dye method that measures nucleic acid content, and by measuring with a Spectrafluor Plus (Tecan). The computer program Prism from GraphPad, Inc. (San Diego, Calif.) was used to calculate IC50 values. IC50 values are those compound concentrations required to inhibit the number of cells responding to a CCR1 agonist by 50%.

| IC50 [nM] | Compound |
| --- | --- |
| 2500 to 12500 | O=C(Cn1cnc2ncccc21)N1CCCc2c1cnn2-c1ccc(F)cc1 |
| < 1000 | Cc1cc(C(F)(F)F)nn1C(CC1CCOCC1)C(=O)N1CCCc2c1cnn2-c1ccc(F)cc1 (stereo not drawn) |
| < 1000 | Cc1cc(C(F)(F)F)nn1C(CC(N)=O)C(=O)N1CCCc2c1cnn2-c1ccc(F)cc1 (stereo not drawn) |
| < 1000 | CCC(C(=O)N1CCCc2c1cnn2-c1ccc(F)cc1)n1nc(C(C)(C)O)cc1C (stereo not drawn) |
| 2500 to 12500 | Cc1cc(C(F)(F)F)nn1C(CC(=O)O)C(=O)N1CCCc2c1cnn2-c1ccc(F)cc1 (stereo not drawn) |
| < 1000 | COCC1CCc2c(cnn2-c2ccc(F)cc2)N1C(=O)Cn1nc(C(F)(F)F)c(Cl)c1C (stereo not drawn) |
| < 1000 | CCC(C(=O)N1CCCc2c1cnn2-c1ccc(F)cc1)n1cc(C(F)(F)F)nc1C (stereo not drawn) |
| < 1000 | Cc1nc(C(F)(F)F)cn1C(C)C(=O)N1CCCc2c1cnn2-c1ccc(F)cc1 (stereo not drawn) |
| < 1000 | Cc1cc(C(F)(F)F)nn1C(CO)C(=O)N1CCCc2c1cnn2-c1ccc(F)cc1 (stereo not drawn) |
| < 1000 | CCC(C(=O)N1c2cnn(-c3ccc(F)cc3)c2CCC1C)n1nc(C(F)(F)F)cc1C (stereo not drawn) |
| < 1000 | O=C(Cc1nc(C(F)(F)F)c2ccccn12)N1CCCc2c1cnn2-c1ccc(F)cc1 |
| < 1000 | CC[C@@H](C(=O)N1CCCc2c1cnn2-c1ccc(F)cc1)n1nc(C(F)(F)F)c(Cl)c1C |
| < 1000 | CC[C@H](C(=O)N1CCCc2c1cnn2-c1ccc(F)cc1)n1nc(C(F)(F)F)c(Cl)c1C |
| < 1000 | O=C(Cc1nc2ccccc2[nH]1)N1CCCc2c1cnn2-c1ccc(F)cc1 |
| < 1000 | COCC(C(=O)N1CCCc2c1cnn2-c1ccc(F)cc1)n1nc(C(F)(F)F)c(Cl)c1C (stereo not drawn) |
| < 1000 | COC(=O)C1CCc2c(cnn2-c2ccc(F)cc2)N1C(=O)Cn1nc(C(F)(F)F)c(Cl)c1C (stereo not drawn) |
| < 1000 | CCC(C(=O)N1CCCc2c1cnn2-c1ccc(F)cc1)n1nc(-c2ncccn2)c(Cl)c1C (stereo not drawn) |
| < 1000 | O=C(Cn1ncc2c1CCCC2)N1CCCc2c1cnn2-c1ccc(F)cc1 |
| < 1000 | O=C(Cc1ccc(C(F)(F)F)cc1Cl)N1CCCc2c1cnn2-c1ccc(F)cc1 |
| < 1000 | Cc1c(Cl)c(C(F)(F)F)nn1CC(=O)N1CCCc2c1cnn2-c1ccc(F)cc1F |
| < 1000 | O=C(Cn1nc(C(F)(F)F)c2c1OCCC2)N1CCCc2c1cnn2-c1ccc(F)cc1 |
| < 1000 | Cc1cc(C(F)(F)F)nn1C(C)C(=O)N1CCCc2c1cnn2-c1ccc(F)cc1 (stereo not drawn) |
| < 1000 | O=C(Cn1ncc2cccnc21)N1CCCc2c1cnn2-c1ccc(F)cc1 |
| < 1000 | O=C(Cn1nc(C(F)(F)F)c2cccnc21)N1CCCc2c1cnn2-c1ccc(F)cc1 |
| < 1000 | O=C(Cc1nc2ccccc2o1)N1CCCc2c1cnn2-c1ccc(F)cc1 |
| < 1000 | O=C(Cn1nc(C(F)(F)F)c2c1CCC2)N1CCCc2c1cnn2-c1ccc(F)cc1 |

| IC50 [nM] | Compound |
| --- | --- |
| < 1000 | O=C(Cn1nc(C(F)(F)F)c2c1CCCC2)N1CCCc2c1cnn2-c1ccc(F)cc1 |
| > 12500 | O=C(Cn1cccn1)N1CCCc2c1cnn2-c1ccc(F)cc1 |
| < 1000 | Cc1c(Cl)c(-c2ncc[nH]2)nn1CC(=O)N1CCCc2c1cnn2-c1ccc(F)cc1 |
| < 1000 | O=C(Cn1nc(-c2ncc[nH]2)c2cccnc21)N1CCCc2c1cnn2-c1ccc(F)cc1 |
| < 1000 | Cc1c(Cl)c(C2=NCCN2)nn1CC(=O)N1CCCc2c1cnn2-c1ccc(F)cc1 |
| > 12500 | Cc1c(Cl)cccc1CC(=O)N1CCCc2c1cnn2-c1ccc(F)cc1 |
| < 1000 | Cc1c(-c2ncon2)cnn1CC(=O)N1CCCc2c1cnn2-c1ccc(F)cc1 |
| < 1000 | Cc1c(Cl)c(C#N)nn1CC(=O)N1CCCc2c1cnn2-c1ccc(F)cc1 |
| 2500 to 12500 | N#Cc1cnn(CC(=O)N2CCCc3c2cnn3-c2ccc(F)cc2)c1 |
| < 1000 | O=C(Cn1nc(C(F)(F)F)c2c1CCOC2)N1CCCc2c1cnn2-c1ccc(F)cc1 |
| < 1000 | Cc1c(Cl)c(S(C)(=O)=O)nn1CC(=O)N1CCCc2c1cnn2-c1ccc(F)cc1 |
| < 1000 | O=C(Cn1cc(C(F)(F)F)cn1)N1CCCc2c1cnn2-c1ccc(F)cc1 |
| < 1000 | CC(C(=O)N1CCCc2c1cnn2-c1ccc(F)cc1)c1ccc(Cl)c(C(F)(F)F)c1 (stereo not drawn) |
| 2500 to 12500 | CC(C)(O)c1cnn(CC(=O)N2CCCc3c2cnn3-c2ccc(F)cc2)c1 |
| < 1000 | Cc1c(Cl)cnn1CC(=O)N1CCCc2c1cnn2-c1ccc(F)cc1 |
| < 1000 | O=C(Cn1ccc(C(F)(F)F)n1)N1CCCc2c1cnn2-c1ccc(F)cc1 |
| < 1000 | O=C(Cn1cc(Cl)c(C(F)(F)F)n1)N1CCCc2c1cnn2-c1ccc(F)cc1 |
| < 1000 | CCC(C(=O)N1CCCc2c1cnn2-c1ccc(F)cc1)n1nc(C(F)(F)F)c(Cl)c1C (stereo not drawn) |
| < 1000 | Cc1c(Cl)c(C(F)(F)F)nn1C(C(=O)N1CCCc2c1cnn2-c1ccc(F)cc1)C(C)C (stereo not drawn) |
| < 1000 | Cc1ccnn1CC(=O)N1CCCc2c1cnn2-c1ccc(F)cc1 |
| < 1000 | O=C(Cn1cc(Cl)cn1)N1CCCc2c1cnn2-c1ccc(F)cc1 |
| < 1000 | Cc1c(Cl)c(C(F)(F)F)nn1CC(=O)N1CCCc2c1cnn2-c1ccc(F)cn1 |
| < 1000 | CC(C)(C(=O)N1CCCc2c1cnn2-c1ccc(F)cc1)c1ccc(Cl)c(C(F)(F)F)c1 |
| < 1000 | O=C(Cc1ccc(Cl)c(OC(F)(F)F)c1)N1CCCc2c1cnn2-c1ccc(F)cc1 |
| < 1000 | O=C(Cc1ccc(OC(F)(F)F)cc1)N1CCCc2c1cnn2-c1ccc(F)cc1 |
| 1000 to 2500 | O=C(Cc1cccc(OC(F)(F)F)c1)N1CCCc2c1cnn2-c1ccc(F)cc1 |

| IC50 [nM] | Compound |
| --- | --- |
| 1000 to 2500 | O=C(C(O)c1cccc(C(F)(F)F)c1)N1CCCc2c1cnn2-c1ccc(F)cc1 (stereo not drawn) |
| < 1000 | Cc1nc(C(F)(F)F)nn1CC(=O)N1CCCc2c1cnn2-c1ccc(F)cc1 |
| < 1000 | O=C(Cn1cnc(C(F)(F)F)n1)N1CCCc2c1cnn2-c1ccc(F)cc1 |
| 2500 to 12500 | O=C(Cc1nccc(C(F)(F)F)n1)N1CCCc2c1cnn2-c1ccc(F)cc1 |
| < 1000 | O=C(Cc1ccc(C(F)(F)F)c(Cl)c1)N1CCCc2c1cnn2-c1ccc(F)cc1 |
| < 1000 | Cc1nc(C(F)(F)F)cn1CC(=O)N1CCCc2c1cnn2-c1ccc(F)cc1 |
| < 1000 | O=C(Cn1cnc(C(F)(F)F)c1)N1CCCc2c1cnn2-c1ccc(F)cc1 |
| < 1000 | O=C(Cc1ccc(Cl)c(C(F)(F)F)c1)N1CCCc2c1cnn2-c1ccc(F)cc1 |
| < 1000 | Cc1c(Cl)c(C(F)(F)F)cn1CC(=O)N1c2cnn(-c3ccc(F)cc3)c2CCC1C (stereo not drawn) |
| < 1000 | O=C(Cc1ccc(C(F)(F)F)cc1)N1CCCc2c1cnn2-c1ccc(F)cc1 |
| < 1000 | Cc1nn(-c2ccc(F)cc2)c2c1N(C(=O)Cn1nc(C(F)(F)F)c(Cl)c1C)CCC2 |
| < 1000 | O=C(Cc1cccc(C(F)(F)F)c1)N1CCCc2c1cnn2-c1ccc(F)cc1 |
| < 1000 | Cc1c(Cl)c(C(F)(F)F)nn1C(C)C(=O)N1CCCc2c1cnn2-c1ccc(F)cc1 (stereo not drawn) |
| < 1000 | Cc1cc(C(F)(F)F)nn1CC(=O)N1CCCc2c1cnn2-c1ccc(F)cc1 |
| < 1000 | Cc1nn(CC(=O)N2CCCc3c2cnn3-c2ccc(F)cc2)c(-c2ncccn2)c1Cl |
| < 1000 | Cc1c(Cl)c(-c2ncccn2)nn1CC(=O)N1CCCc2c1cnn2-c1ccc(F)cc1 |
| < 1000 | Cc1c(Cl)c(C(C)(C)O)nn1CC(=O)N1CCCc2c1cnn2-c1ccc(F)cc1 |
| < 1000 | Cc1c(Cl)c(C(F)(F)F)nn1CC(=O)N1CCCc2c1cnn2-c1ccc(Cl)cc1 |
| < 1000 | COc1cc(-n2ncc3c2CCCN3C(=O)Cn2nc(C(F)(F)F)c(Cl)c2C)ccc1Cl |
| < 1000 | O=C(Cc1ccc(Cl)cc1)N1CCCc2c1cnn2-c1ccc(F)cc1 |
| < 1000 | Cc1c(Cl)c(C(F)(F)F)nn1CC(=O)N1CCCc2c1cnn2-c1ccc(F)cc1 |
| < 1000 | Nc1ncnc2c1c(-c1ncc[nH]1)nn2CC(=O)N1CCCc2c1cnn2-c1ccc(F)cc1 |
| < 1000 | Cc1nc(C(F)(F)F)nn1C(C)C(=O)N1CCCc2c1cnn2-c1ccc(F)cc1 (stereo not drawn) |
| < 1000 | Cc1nc(C(F)(F)F)nn1C(C)C(=O)N1CCCc2c1cnn2-c1ccc(Cl)cc1 (stereo not drawn) |
| < 1000 | Cc1nc(C(F)(F)F)cn1[C@@H](C)C(=O)N1CCCc2c1cnn2-c1ccc(Cl)cc1 |
| < 1000 | Cc1nc(C(F)(F)F)cn1[C@@H](C)C(=O)N1CCCc2c1cnn2-c1ccc(F)cc1 |
